Read-outs that look alike come from different tables or passages of the source.
Key:
[1] = test system: soybean seedlings cv RAS 04; settings: in vivo
Protocol: (§1) Treated or untreated soybean seeds were allowed to dry under laminar flow for 24 h before sowing.
Plastic Box of 500 cc were filled with 250 ml extra fine (vermiculite up to 2 5 cm of the top 3 boxes per treatment. 50 ml of sterilized soybean seeds previously inoculated with Sclerotinia sclerotiorum (strain Sscl wt) grounded and mixed with XF vermiculite were spread over the 250 ml vermiculite. Same was done with the non-inoculated seeds serving as a reference for the germination test.
The inoculum was covered with 100 ml (1 cm) of XF vermiculite, and then 9 untreated or treated 9 soybean seeds were sown in each box. Seeds were covered with 150 ml (1.5 cm) of XF vermiculite. The substrate was moistened with 200 ml of tap water and then weekly once with tap water and once with a 0 5 g/l nutrients solution (Plant Prod, Ltd N P K 20 20 20 and micronutrients). The lid was punctured and then placed on each box for 5 days to maintain saturated humidity. Boxes were placed in a climatic chamber with a photoperiod of 16 h light/8 h darkness, 2424° C. day/1818° C. night and a relative humidity of 85.
Phytotoxicity assessments were carried out checking analyzing the following parameters: • a. Rate of emergence of soybean seedlings after 7 days post sowing dps. • b. General development (pictures) of the aerial part of the soybean plants after 3 weeks of incubation

[2] = test system: soybean seedlings cv RAS 04; settings: in vivo; remark: listed apart in the source
Protocol: Disinfected seed surface of the soybean cultivar RAS 04 from RAGT were treated with the laboratory seed dressing equipment called Bol Hégé with the following products: • ADM 00050 F 1 A (500 SC) at 0.002-0.005-0.01-0.02 and 0.05 L/100 Kg seeds (1-2.5-5-10-25 g ai/100 Kg seeds), without coating agent. • Vibrance duo (25+25 g ai/L of Fludioxonil and Sedaxane SC) at 0.2 L/100 Kg seeds, corresponding to 5+5 g ai/100 Kg seeds of Fludioxonil and Sedaxane • Santhal (465 g ai/L of Metalaxyl-M (Mefenoxam) EC) at 0.064 L/100 Kg seeds (3 g ai/100 Kg seeds of Metalaxyl-M=Mefenoxam) without coating agent • Sterile distilled water Untreated Control, without coating agent
as §1
Plastic Box of 500 cc were filled with 250 ml extra fine (vermiculite up to 2 5 cm of the top 3 boxes per treatment. 50 ml of sterilized soybean seeds previously inoculated with Rhizoctonia solani (strain RsolAG 2 2) grounded and mixed with XF vermiculite were spread over the 250 ml vermiculite. Same was done with the non-inoculated seeds serving as a reference for the germination test.
The inoculum was covered with 100 ml (1 cm) of XF vermiculite, and then 9 untreated or treated 9 soybean seeds were sown in each box. Seeds were covered with 150 ml (1.5 cm) of XF vermiculite. […]

COCC(=O)N(c1c(C)cccc1C)[C@H](C)C(=O)OC [Metalaxyl-M]
Seedling emergence rate (% of the total) [1]: 77.8 +/− 6.4a % of the total | Seedling emergence rate (% of the total) [2]: 77.8 +/− 6.4a % of the total
